Experiments:
[1] = Therapeutic index, ratio of IC50 for mock-infected human H9 cells to EC50 for HIV1 3B; format: cell-based; conditions: for selectivity ratio: read-out: TI; for Activity: h9
H9 = assay: Cytotoxicity against mock-infected human H9 cells after 4 days; format: cell-based; conditions: h9, 96 h

COc1c2c(cc3c1-c1c(cc4c(c1OC)OCO4)[C@H](OC(=O)c1ccccc1)[C@@H](C)[C@@H](C)C3)OCO2 [INTERIOTHERIN A]
selectivity ratio [1]: 13.2

C/C=C(/C)C(=O)O[C@H]1c2cc3c(c(OC)c2-c2c(cc4c(c2OC)OCO4)C[C@H](C)[C@@H]1C)OCO3 [ANGELOYLGOMISIN R]
Activity (H9): Not Active
Activity [1]: Active

C/C=C(/C)C(=O)O[C@H]1c2cc3c(c(OC)c2-c2c(cc4c(c2OC)OCO4)C[C@H](C)[C@]1(C)O)OCO3 [INTERIOTHERIN B]
Activity (H9): Not Active
Activity [1]: Active

Cc1cn([C@H]2C[C@H](N=[N+]=[N-])[C@@H](CO)O2)c(=O)[nH]c1=O [ZIDOVUDINE]
selectivity ratio [1]: 250000

COc1c2c(cc3c1-c1c(cc4c(c1OC)OCO4)[C@H](OC(=O)c1ccccc1)[C@@](C)(O)[C@@H](C)C3)OCO2 [SCHISANTHERIN D]
selectivity ratio [1]: 50.6
